Substitutions are numbered along the chain they refer to. Non-standard residues stand in square brackets, D forms with d. Residues, ends and D or L forms follow the SMILES beside them. Nle = CCCC[C@H](N)C(=O)O; βAla = NCCC(=O)O
Legend:
Format in all cases: cell-based
Rat BRS-3/IF (RB3-IF) = target: T1, Rat BRS-3/IF (RB3-IF) (Rattus norvegicus, UniProt Q8K418, V310I/V311F); assay: Calcium mobilization assay (FLIPR), substitution mutant
T1 construct: expressed in transfected cells; host or cells: 293EBNA cells, pE3 expression vector
T1 sequence (Q8K418 1-399 V310I/V311F): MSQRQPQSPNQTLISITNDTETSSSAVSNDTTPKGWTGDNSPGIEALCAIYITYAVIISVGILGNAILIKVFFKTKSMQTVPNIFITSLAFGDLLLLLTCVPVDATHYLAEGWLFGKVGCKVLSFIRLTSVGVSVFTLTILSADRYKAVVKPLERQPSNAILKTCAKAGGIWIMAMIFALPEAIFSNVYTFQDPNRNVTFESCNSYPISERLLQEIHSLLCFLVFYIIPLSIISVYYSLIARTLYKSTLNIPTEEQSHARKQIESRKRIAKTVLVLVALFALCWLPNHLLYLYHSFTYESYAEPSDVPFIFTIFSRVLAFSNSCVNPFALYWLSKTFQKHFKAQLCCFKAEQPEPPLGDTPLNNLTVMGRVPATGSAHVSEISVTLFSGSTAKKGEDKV
From the text: (§1) Chimeric rat/human BRS-3 genes and substitution mutant rat BRS-3 genes were constructed by using PCR mutagenesis techniques (Fong, T. in Structure-function analysis of G protein coupled receptors, J, Wess, ed, Wiley-Liss, pp. 1-20, (1999)). All the mutant and wild type BRS-3 genes were cloned into pE3 expression vector which contains CMV early promoter, hygromycin-resistance gene and OriP segment from Epstein-Bar virus.
(§2) The functional activity of rat BRS-3 was also studied by measuring the agonist-induced calcium mobilization response using a Fluorescence Imaging Plate Reader (Molecular Devices, Sunnyvale, Calif.). Transfected 293EBNA cells were plated onto poly-D-lysine coated 96-well plates with black wall and clear bottom (Becton Dickinson, Franklin Lakes, N.J.). After 16-48 hr culture, the cells were loaded with 4 uM Fluo-3-AM fluorescent calcium-indicator dye (Molecular Probes, Eugene, OR) in assay buffer (Hank's balanced salts solution, 10 mM HEPES, pH7.4, 0.1% bovine serum albumin, 2.5 mM probenecid).
(§3) The changes in intracellular calcium concentration, as indicated by Fluo-3 fluorescence, were immediately measured by FLIPR. Maximal changes in fluorescence over base line were used to determine agonist response.
(§4) The EC50 values were mean±S.E. calculated from dose-response curves of 3-5 repeated experiments using FLIPR assays.
(§5) To determine which amino acids in the E3 loop of human BRS-3 conferred dYB activity upon rat BRS-3, several substitution BRS-3 mutants were made in which the amino acids in the E3 loop of rat BRS-3 were substituted with residues that match human BRS-3.

Rat BRS-3/VD (RB3-VD) = target: T2, Rat BRS-3/VD (RB3-VD) (Rattus norvegicus, UniProt Q8K418, A302V/E303D); assay: as above
T2 construct: expressed in transfected cells; host or cells: 293EBNA cells, pE3 expression vector
T2 sequence (Q8K418 1-399 A302V/E303D): T1 sequence (Q8K418 1-399 V310I/V311F) with A302V, E303D, I310V, F311V
From the text: as §1, §2, §3, §4, §5

Rat BRS-3/SQT (RB3-SQT) = target: T3, Rat BRS-3/SQT (RB3-SQT) (Rattus norvegicus, UniProt Q8K418, E299Q/S300T/Y298S); assay: as above
T3 construct: expressed in transfected cells; host or cells: 293EBNA cells, pE3 expression vector
T3 sequence (Q8K418 1-399 Y298S/E299Q/S300T): T1 sequence (Q8K418 1-399 V310I/V311F) with Y298S, E299Q, S300T, I310V, F311V
From the text: as §1, §2, §3, §4, §5

rat BRS-3 = target: T4, rat BRS-3 (Rattus norvegicus, UniProt Q8K418); assay: Calcium mobilization assay (FLIPR), transfected 293EBNA cells
T4 construct: utilized to PCR amplify full-length rat BRS-3 cDNA; expressed in transfected cells; host or cells: 293EBNA cells, pE3 expression vector
T4 sequence (Q8K418 1-399): T1 sequence (Q8K418 1-399 V310I/V311F) with I310V, F311V
Description: Wild type and mutant BRS-3 constructs were transfected by using lipofectamine reagents (Life Technologies, Rockville, Md.) into 293EBNA cells (Invitrogen, Carlsbad, Calif.) which support episomal replication of plasmid containing Epstein Bar virus OriP segment. Stable cell lines were obtained by selection with 250 ug/ml hygromycin. The cells were maintained as monolayers in Dulbecco's modified Eagle's medium (Life Technologies, Rockville, Md.) supplemented with 10% fetal bovine serum and incubated at 37° C. in a humidified 5% CO2 incubator.
as §2, §3, §4

Structure (SMILES) | EC50 (Rat BRS-3/IF (RB3-IF)) [nM] | EC50 (Rat BRS-3/VD (RB3-VD)) [nM] | EC50 (Rat BRS-3/SQT (RB3-SQT)) [nM] | EC50 (rat BRS-3) [nM] | effect of mutation on dYB receptor activity (Rat BRS-3/IF (RB3-IF); RBB3-IF vs rat BRS-3) | effect of mutation on dYB receptor activity (Rat BRS-3/VD (RB3-VD); RBB3-VD vs rat BRS-3) | improvement of dYB potency in calcium mobilization (Rat BRS-3/SQT (RB3-SQT); RB3-SQT vs rat BRS-3) [fold] | difference in dYB potency between human and rodent BRS-3 (rat BRS-3) | lower affinity of rat BRS-3 to dYB than human BRS-3 (rat BRS-3)
CCCC[C@H](NC(=O)[C@H](Cc1ccccc1)NC(=O)[C@H](Cc1cnc[nH]1)NC(=O)CCNC(=O)[C@@H](NC(=O)[C@H](C)NC(=O)[C@H](Cc1c[nH]c2ccccc12)NC(=O)[C@H](CCC(N)=O)NC(=O)[C@H](N)Cc1ccc(O)cc1)C(C)C)C(N)=O [dYB, [D-Tyr6-betaAla11-Phe13-Nle14] bombesin (6-14)] (H-[dY]QWAV[βAla]HF[Nle]-NH2) | 1300 ± 230 | 930 ± 150 | 390 ± 80 | 2200 ± 500 |  |  |  |  | 
CCCC[C@H](NC(=O)[C@H](Cc1ccccc1)NC(=O)[C@H](Cc1c[nH]cn1)NC(=O)CCNC(=O)[C@@H](NC(=O)[C@H](C)NC(=O)[C@H](Cc1c[nH]c2ccccc12)NC(=O)[C@H](CCC(N)=O)NC(=O)[C@H](N)Cc1ccc(O)cc1)C(C)C)C(N)=O [dYB, [D-Tyr6-betaAla11-Phe13-Nle14] bombesin (6-14)] (H-[dY]QWAV[βAla]HF[Nle]-NH2) |  |  |  |  | little effect on the receptor activity | little effect on the receptor activity | 5 | approximately 1000 fold | approximately 1000 fold

From patent US20050222402A1, “Dna encoding rat bombesin receptor subtype-3 (brs-3) and uses thereof” (priority 2001, published 2005)
